Drawing on US20250179059A1 (The Regents of the University of California, priority 2021, published 2025), this text covers IC50 for 31 compounds.

Structures can show the parent of a compound that is named as a salt. Some results are limits rather than exact numbers.

The target of the test is T1, human BRD4 bromodomain II (Homo sapiens, UniProt O60885).
T1 construct: human BRD4 bromodomain II [based on Genbank NM_058243, residues 349-460]; host or cells: E. coli
The test can be described thus: Bromodomain binding assay (AlphaScreen), BRD4 BDII. The conditions noted are these: AlphaScreen assay, Table C2; read-out: BRD4 BDII IC50. As for the experimental part:
Bromodomain Binding Assay
The bromodomain binding assay utilizes AlphaScreen technology. Compounds compete with a biotinylated peptide ligand (from histone H4: aa 1-21, K5/K8/K12/K16Ac-biotin) for binding to a hexahistidine (His6)-tagged bromodomain. Peptide binding is detected by fluorescence signal after singlet oxygen energy transfer from peptide-bound AlphaScreen streptavidin-coated donor beads to His6-tagged bromodomain-bound nickel-chelate acceptor beads (PerkinElmer). Briefly, 8 μL 2.5× bromodomain (E. coli expressed, N-terminal His6-tagged human BRD4 bromodomain II [based on Genbank NM_058243, residues 349-460] or N-terminal His6-tagged human BRD4 bromodomain I [residues 44-170]) in reaction buffer (50 mM HEPES [pH 7.5], 100 mM NaCl, 0.05% CHAPS, 0.1% BSA, 1% DMSO) is added to wells of an assay plate (384-well low flange white, flat bottom, polystyrene microplate, Corning #3572; buffer only is added to some wells as a negative control). A compound concentration series (10 concentrations, 3-fold serial dilutions previously prepared in 100% DMSO, or 100% DMSO only negative control) is delivered to the assay plate with an Echo 550 acoustic liquid handler (Labcyte), followed by plate centrifugation and incubation for 30 minutes at room temperature. Then 4 μL 5× biotinylated peptide ligand is added, followed by plate centrifugation and gentle shaking for 30 minutes at room temperature to mix. After this incubation, 4 μL 5× donor beads are added, and the plate is centrifuged, followed by brief gentle shaking to mix. Finally, 4 μL 5× acceptor beads are added, and the plate is centrifuged, followed by gentle shaking for 60 minutes at room temperature in the dark. AlphaScreen signal (excitation/emission: 680 nm/520-620 nm) is detected with an EnSpire multimode plate reader (PerkinElmer). Percentage peptide binding is plotted as a function of concentration, and curve fitting is used to determine competitive compound binding ICsos.
On the technique in general: In Alpha technology, singlet oxygen from a donor bead excites a nearby acceptor bead.
The IC50 is the point on the concentration scale where inhibition reaches its midpoint. In the case of `COc1c(-c2ccc(NC(C)=O)cc2)cccc1-c1cc(N2CCN(C)CC2)no1` [Example 7], the IC50 was above 100 nM.
As to `CC(=O)Nc1ccc(-c2cccc(-c3cc(N4CCNCC4)sn3)c2O)cc1` [Example 8, N-(2′-Hydroxy-3′-(5-(piperazin-1-yl)isothiazol-3-yl)-[1,1′-biphenyl]-4-yl)acetamide], the IC50 is above 100 nM.
On to `CC(=O)N(C)c1ccc(-c2cccc(-c3cc(N4CCNCC4)no3)c2O)cc1` [Example 9, N-(2′-Hydroxy-3′-(3-(piperazin-1-yl)isoxazol-5-yl)-[1,1′-biphenyl]-4-yl)-N-methylacetamide], for which the concentration for half-maximal inhibition (IC50) was above 100 nM.
For `CC(=O)Nc1ccc(-c2cccc(-c3ccc(NC(C)=O)cc3)c2O)cc1` [Example 11, N,N′-(2′-hydroxy-[1,1′:3′,1″-terphenyl]-4,4″-diyl)diacetamide] the value was above 100 nM; for `CC(=O)Nc1ccc(-c2cccc(-c3ccccc3)c2O)cc1` [Example 12, N-(2′-Hydroxy-[1,1′:3′,1″-terphenyl]-4-yl)acetamide], above 100 nM.
For `CC(=O)Nc1ccc(-c2cccc(-c3cnn(C)c3)c2O)cc1` [Example 13, N-(2′-Hydroxy-3′-(1-methyl-1H-pyrazol-4-yl)-[1,1′-biphenyl]-4-yl)acetamide] the value was above 100 nM; for `CC(=O)Nc1ccc(-c2cccc(-c3cnn(-c4ccccc4)c3)c2O)cc1` [Example 14, N-(2′-Hydroxy-3′-(1-phenyl-1H-pyrazol-4-yl)-[1,1′-biphenyl]-4-yl)acetamide], above 100 nM.
For `CC(=O)Nc1ccc(-c2cccc(-c3cnn(C4CCNCC4)c3)c2O)cc1` [Example 15, N-(2′-Hydroxy-3′-(1-(piperidin-4-yl)-1H-pyrazol-4-yl)-[1,1′-biphenyl]-4-yl)acetamide] the value was above 100 nM; for `CC(=O)Nc1ccc(-c2cccc(-c3cnn(-c4ccc(F)cc4)c3)c2O)cc1` [Example 16, N-(3′-(1-(4-Fluorophenyl)-1H-pyrazol-4-yl)-2′-hydroxy-[1,1′-biphenyl]-4-yl)acetamide], above 100 nM.
In the case of `CC(=O)Nc1ccc(-c2cccc(-c3cnn(C4CCN(C)CC4)c3)c2O)cc1` [Example 17, N-(2′-Hydroxy-3′-(1-(1-methylpiperidin-4-yl)-1H-pyrazol-4-yl)-[1,1′-biphenyl]-4-yl)acetamide], the IC50 was above 100 nM.
As to `CC(=O)Nc1ccc(-c2cccc(-n3cnc(-c4ccc(F)cc4)c3)c2O)cc1` [Example 18, N-(3′-(4-(4-Fluorophenyl)-1H-imidazol-1-yl)-2′-hydroxy-[1,1′-biphenyl]-4-yl)acetamide], the IC50 is above 100 nM.
In the case of `CCOc1cc(-c2cccc(-c3cc(N4CCNCC4)no3)c2O)ccc1NC(C)=O` [Example 19, N-(3-Ethoxy-2′-hydroxy-3′-(3-(piperazin-1-yl)isoxazol-5-yl)-[1,1′-biphenyl]-4-yl)acetamide 2,2,2-trifluoroacetate], the 50% inhibitory concentration (IC50) is above 100 nM.
With `CC(=O)Nc1ccc(-c2cccc(-c3cc(N4CCNCC4)no3)c2O)cc1OC(C)C` [Example 20, N-(2′-Hydroxy-3-isopropoxy-3′-(3-(piperazin-1-yl)isoxazol-5-yl)-[1,1′-biphenyl]-4-yl)acetamide], the IC50 was in the range of 10 to 100 nM.
As for `CC(=O)Nc1ccc(-c2cccc(-c3cc(N4CCNCC4)no3)c2O)cc1C` [Example 21, N-(2′-Hydroxy-3-methyl-3′-(3-(piperazin-1-yl)isoxazol-5-yl)-[1,1′-biphenyl]-4-yl)acetamide hydrochloride], the IC50 is above 100 nM.
Then `CCc1cc(-c2cccc(-c3cc(N4CCNCC4)no3)c2O)ccc1NC(C)=O` [Example 22, N-(3-Ethyl-2′-hydroxy-3′-(3-(piperazin-1-yl)isoxazol-5-yl)-[1,1′-biphenyl]-4-yl)acetamide 2,2,2-trifluoroacetate], with above 100 nM; and `COc1cc(-c2cccc(-c3cc(N4CCNCC4)no3)c2O)ccc1NC(C)=O` [Example 23, N-(2′-Hydroxy-3-methoxy-3′-(3-(piperazin-1-yl)isoxazol-5-yl)-[1,1′-biphenyl]-4-yl)acetamide 2,2,2-trifluoroacetate], with above 100 nM.
For `CC(=O)Nc1ccc(-c2cccc(-c3cc(N4CCNCC4)no3)c2O)cc1OC1CCC1` [Example 24, N-(3-cyclobutoxy-2′-hydroxy-3′-(3-(piperazin-1-yl)isoxazol-5-yl)-[1,1′-biphenyl]-4-yl)acetamide 2,2,2-trifluoroacetate] the value was 10 to 100 nM; for `CC(=O)Nc1ccc(-c2cccc(-c3cc(N4CCNCC4)no3)c2O)cc1OC(F)(F)F` [Example 25, N-(2′-hydroxy-3′-(3-(piperazin-1-yl)isoxazol-5-yl)-3-(trifluoromethoxy)-[1,1′-biphenyl]-4-yl)acetamide], above 100 nM.
Then `CC(=O)Nc1ccc(-c2cccc(-c3cc(N4CCNCC4)no3)c2O)cc1OC(F)F` [Example 26, N-(3-(Difluoromethoxy)-2′-hydroxy-3′-(3-(piperazin-1-yl)isoxazol-5-yl)-[1,1′-biphenyl]-4-yl)acetamide 2,2,2-trifluoroacetate], with above 100 nM; and `CC(=O)Nc1ccc(-c2cccc(-c3cc(N4CCNCC4)no3)c2O)cc1C(C)C` [Example 27, N-(2′-Hydroxy-3-isopropyl-3′-(3-(piperazin-1-yl)isoxazol-5-yl)-[1,1′-biphenyl]-4-yl)acetamide 2,2,2-trifluoroacetate], with above 100 nM.
As to `CC(=O)Nc1ccc(-c2cccc(-c3cc(N4CCNCC4)no3)c2O)cc1OC1CC2(COC2)C1` [Example 28, N-(3-(2-Oxaspiro[3.3]heptan-6-yloxy)-2′-hydroxy-3′-(3-(piperazin-1-yl)isoxazol-5-yl)-[1,1′-biphenyl]-4-yl)acetamide 2,2,2-trifluoroacetate], the half-inhibitory concentration (IC50) fell in the range of 10 to 100 nM.
Then `CC(=O)N1CCC(=O)Nc2cc(-c3cccc(-c4cc(N5CCNCC5)no4)c3O)ccc21` [Example 29, 5-Acetyl-8-(2-hydroxy-3-(3-(piperazin-1-yl)isoxazol-5-yl)phenyl)-4,5-dihydro-1H-benzo[b][1,4]diazepin-2(3H)-one 2,2,2-trifluoroacetate], with above 100 nM.
For `CC(=O)Nc1ccc(-c2cccc(-c3cc(N4CCNCC4)no3)c2O)c(F)c1` [Example 30, N-(2-Fluoro-2′-hydroxy-3′-(3-(piperazin-1-yl)isoxazol-5-yl)-[1,1′-biphenyl]-4-yl)acetamide 2,2,2-trifluoroacetate] the value was above 100 nM; for `CC(=O)N1CCc2cc(-c3cccc(-c4cc(N5CCNCC5)no4)c3O)ccc21` [Example 31, 1-(5-(2-Hydroxy-3-(3-(piperazin-1-yl)isoxazol-5-yl)phenyl)indolin-1-yl)ethanone 2,2,2-trifluoroacetate], above 100 nM; for `CC(=O)Nc1ccc(-c2cccc(-c3cc(N4CCNCC4)no3)c2O)cc1Cl` [Example 32, N-(3-Chloro-2′-hydroxy-3′-(3-(piperazin-1-yl)isoxazol-5-yl)-[1,1'-biphenyl]-4-yl)acetamide 2,2,2-trifluoroacetate], 10 to 100 nM.
On to `CC(=O)Nc1ccc(-c2cccc(-c3ccc(NC(C)=O)c(F)c3)c2O)cc1F` [Example 33, N,N′-(3,3″-Difluoro-2′-hydroxy-[1,1′:3′,1″-terphenyl]-4,4″-diyl)diacetamide], for which the IC50 was above 100 nM.
For `CC(=O)Nc1ccc(-c2cccc(-c3cc(N4CCNCC4)no3)c2O)cc1F` [Example 34, N-(3-Fluoro-2′-hydroxy-3′-(3-(piperazin-1-yl)isoxazol-5-yl)-[1,1′-biphenyl]-4-yl)acetamide trifluoroacetate] the value was 10 to 100 nM; for `CC(=O)Nc1ccc(-c2cccc(-c3cnn(-c4ccccc4)c3)c2O)cc1F` [Example 35, N-(3-Fluoro-2′-hydroxy-3′-(1-phenyl-1H-pyrazol-4-yl)-[1,1′-biphenyl]-4-yl) acetamide], above 100 nM; for `CC(=O)N1CCCc2cc(-c3cccc(-c4cc(N5CCNCC5)no4)c3O)ccc21` [Example 36, 1-(6-(2-Hydroxy-3-(3-(piperazin-1-yl)isoxazol-5-yl)phenyl)-3,4-dihydroquinolin-1(2H)-yl)ethanone 2,2,2-trifluoroacetate], above 100 nM.
As for `O=C1OCCN1c1ccc(-c2cccc(-c3cc(N4CCNCC4)no3)c2O)cc1` [Example 37, 3-(2′-Hydroxy-3′-(3-(piperazin-1-yl)isoxazol-5-yl)-[1,1′-biphenyl]-4-yl)oxazolidin-2-one 2,2,2-trifluoroacetate], the IC50 is above 100 nM.
Then `CC(=O)N1CCC(=O)N(C)c2cc(-c3cccc(-c4cc(N5CCNCC5)no4)c3O)ccc21` [Example 38, 5-Acetyl-8-(2-hydroxy-3-(3-(piperazin-1-yl)isoxazol-5-yl)phenyl)-1-methyl-1,3,4,5-tetrahydro-2H-benzo[b][1,4]diazepin-2-one], with above 100 nM.
